Data reported in paper PMC7802075 (ACS Infectious Diseases, 2020).
Like-named read-outs stand apart in the source and are kept apart here.

Experiments:
[1] = system: L. major (FV1) promastigotes; test: Antipromastigote resazurin assay, L. major (FV1) wild type; type: cell-based, Leishmania major; conditions: for EC50: L. major (FV1), read-out: EC50 against L. major promastigotes
[2] = molecular target: T1, LmjIPCS (inositol phosphorylceramide synthase from L. major) (Leishmania major, UniProt E9AFX2); test: biochemical; type: biochemical; conditions: for LmjIPCS inhibition: secondary dose response
T1 sequence (E9AFX2 1-338): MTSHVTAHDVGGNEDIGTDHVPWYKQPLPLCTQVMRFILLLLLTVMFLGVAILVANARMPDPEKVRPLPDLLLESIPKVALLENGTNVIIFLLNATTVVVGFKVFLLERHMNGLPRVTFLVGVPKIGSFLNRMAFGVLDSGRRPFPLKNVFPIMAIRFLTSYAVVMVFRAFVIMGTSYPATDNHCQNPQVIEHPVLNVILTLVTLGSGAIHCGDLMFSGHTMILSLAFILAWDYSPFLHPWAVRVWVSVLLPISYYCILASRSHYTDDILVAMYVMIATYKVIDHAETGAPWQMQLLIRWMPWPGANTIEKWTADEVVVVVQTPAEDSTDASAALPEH

[3] = NINDS set screen against L. major promastigotes, single concentration printed as 10mM
[4] = L. major promastigotes, dose response
[5] = Leishmania major, secondary dose response
[6] = NINDS set screen, single concentration printed as 20mM

Row | SMILES | 10mM inhibition L. major [1, 3] [%] | 20mM inhibition LmjIPCS [2] [%] | 20mM inhibition LmjIPCS [2, 6] [%] | also measured
1 | Cc1cc(N)c2ccccc2[n+]1CCCCCCCCCC[n+]1c(C)cc(N)c2ccccc21 | <5 | 72 | – | –
2 | CCCCCCCCNC(C)C(O)c1ccc(SC(C)C)cc1 (stereo not shown) [suloctidil 15, suloctidil, reference compound] | 74 | – | 81 | ED50 vs L. major [1, 4]: 1330 µM; EC50 [1, 5]: > 1 µM; IC50 [2]: 3.67 µM; LmjIPCS inhibition [2]: confirmed
3 | C=CC1=C(C)c2cc3[nH]c(cc4nc(cc5[nH]c(cc1n2)c(C)c5CCC(=O)O)C(CCC(=O)O)=C4C)c(C)c3C=C [PROTOPORPHYRIN IX] | <5 | – | 77 | –
4 | CN1CCN(CCCN2c3ccccc3Sc3ccc(C(F)(F)F)cc32)CC1 [trifluoperazine 16, trifluoperazine, reference compound] | 67 | 86 | – | ED50 vs L. major [1, 4]: 7170 µM; EC50 [1, 5]: > 1 µM; IC50 [2]: 5.03 µM; LmjIPCS inhibition [2]: confirmed
5 | CC(C)NC[C@@H](O)COc1cccc2ccccc12 [DEXPROPRANOLOL] | – | – | – | 10mM inhibition L. major [1]: <5%
6 | Cc1nnc(NS(=O)(=O)c2ccc(N)cc2)s1 [sulfamethizole 14, sulfamethizole, reference compound] | 68 | 77 | – | ED50 vs L. major [1, 4]: 39600 µM; antileishmanial activity ([1]; L. major promastigotes, secondary dose response): poor antileishmanial activity; IC50 [2]: > 100 µM; IC50 against LmjIPCS [2]: could not be determined
7 | CC(NCCC(c1ccccc1)c1ccccc1)c1ccccc1 (stereo not shown) [fendiline 6, fendiline, reference compound] | 74 | – | 71 | ED50 vs L. major [1, 4]: 7640 µM; EC50 [1, 5]: > 1 µM; IC50 [2]: 4.22 µM; LmjIPCS inhibition [2]: confirmed
8 | CN1CCN(CCCN2c3ccccc3Sc3ccc(Cl)cc32)CC1 [prochlorperazine edisylate 11, prochlorperazine edisylate, reference compound] | – | – | – | 10mM inhibition L. major [1]: 11%; ED50 vs L. major [1]: 12900 µM
9 | CN(C)CCCN1c2ccccc2Sc2ccccc21 [PROMAZINE] | <5 | 77 | – | –
10 | COc1ccccc1OCCNCC(O)COc1cccc2[nH]c3ccccc3c12 (stereo not shown) [CARVEDILOL] | <5 | 73 | – | –
11 | CO[C@]12C[C@@H](COC(=O)c3cncc(Br)c3)CN(C)[C@@H]1Cc1cn(C)c3cccc2c13 [NICERGOLINE] | <5 | 80 | – | –
12 | [H]/N=C(/NCCCCC)N/N=C/c1c[nH]c2ccc(OC)cc12 [TEGASEROD] | – | – | 71 | inhibition of growth at 10000 µM ([1]; Leishmania major, NINDS set screen against L. major promastigotes, single concentration printed as 10mM): < 5%
13 | CCCc1cc(=O)[nH]c(=S)[nH]1 [PROPYLTHIOURACIL] | – | 73 | – | 10mM inhibition L. major [1]: <5%
14 | CC(C)NCC(O)COc1cccc2ccccc12 (stereo not shown) [propranolol 12, propranolol, reference compound] | – | – | – | 10mM inhibition L. major [1]: 84%; ED50 vs L. major [1]: 4910 µM
15 | CN(C)CCC=C1c2ccccc2CCc2ccccc21 [AMITRIPTYLINE] | <5 | 82 | – | –
16 | CCc1nc(N)nc(N)c1-c1ccc(Cl)cc1 [PYRIMETHAMINE] | <5 | – | 77 | –
17 | CC(CN(C)C)CN1c2ccccc2Sc2ccccc21 (stereo not shown) [TRIMEPRAZINE] | <5 | 71 | – | –
18 | C=C[C@H]1C[N@@]2CC[C@H]1C[C@H]2[C@H](O)c1ccnc2ccc(OC)cc12 [QUININE] | <5 | 70 | – | –
19 | CCCCC(CC)CN1CN(CC(CC)CCCC)CC(C)(N)C1 (stereo not shown) [HEXETIDINE] | <5 | – | 85 | –
20 | CNCCC=C1c2ccccc2CCc2ccccc21 [NORTRIPTYLINE] | – | 81 | – | 10mM inhibition L. major [1]: <5%
